The target of assay [1] is human neutrophils (receptor sites for IL-8 on neutrophils) (human). Briefly: competition with 125I-IL-8 on human neutrophils.
Assay [2] concerns human neutrophils. The assay is classed as cell-based, human neutrophils from donor blood buffy coats. The following applies: read-out: Elastase ED50; n = 3. The text has this:
(§1) In a valuable aspect of the present invention, there are provided IL-8 analogs that are antagonists of IL-8 activity. Antagonists of IL-8 activity are characterized by the ability to reduce one or more of the measurable consequences of IL-8-mediated neutrophil stimulation. Biological assays are known which may be used to test for IL-8 activities or an ability to block or inhibit IL-8. The in vitro assays require human neutrophils which may be isolated from donor blood by known procedures such as that described by Peveri, et al (1988) J. Exp. Med. 167: 1547-1559. The assays include measurement of elastase release, cytosolic free calcium changes, and chemotaxis and may be performed according to methods described by Schroder, et al (1987) J. Immunol. 139: 3474-3483; and, Peveri, et al (1988) [supra].
(§2) For the biological assays referred to in the following examples, human neutrophils isolated from buffy coats of donor blood were placed in a final suspension of 10^8 cells/ml kept at 0.15mM MaCl, 0.05 mM CaCl2 at 10° C. until use. Competition binding studies were performed according to the following protocol. IL-8 was iodinated with Enzymobead reagent (Bio-Rad) as instructed by the supplier. Briefly, 1 nmol of IL-8 was mixed with 50 µl of rehydrated Enzymobead reagent, 50 µl of 0.2M potassium phosphate, pH 7.2, 2 mCl or Na^125 I, and […] of 2% D(+)-glucose and incubated for 30 min at 21° C. […] The ^125 I-IL-8 preparations were each analyzed for purity (SDS-polyacrylamide gel electrophoresis) and binding capacity (self-displacement analysis using freshly isolated human neutrophils) prior to use. Neutrophils ([…]) in 120 µl of RPMI 1640 medium containing 20 mM Hepes, pH 7.3, and 10 mg/ml BSA (binding medium) are incubated on ice (0°-4° C.) for 90 min with 1 nM ^125 I-IL-8 in the presence or absence of cold competitor (10^-11 to 10^-5). Cells are separated from unbound radioactivity by centrifugation for 1 min at 8000× g through 350 µl of phosphate-buffered saline (PBS) containing 60 mg/ml BSA (wash medium) in a Hettich Microliter centrifuge model 2020. The supernatant is aspirated, and the bottom of the tubes containing the cell sediment is sliced off and counted in a MR 480 automated µ counter (kontron). The Kd values were determined by calculating nonlinear least squares fits of the measured data, based on a single binding site model, and determining the Kd using a LIGAND program as described by Moser, et al (1991) J. Biol. Chem. 266: 10666-10671.
(§3) Cytokine analogs formed from the monomers described in Table 1 were compared for biological activity according to in vitro assays described herein. […] The binding dissociation constants (Kd values) were calculated from the competitive binding data shown in FIGS. 5 and 6 as described above.
Shown are determinations at the indicated concentrations of IL-8 1-72: .oval-solid., 1-72; .tangle-solidup., 3-72; .increment., 4-72; .diamond., 5-72; .box-solid., 6-72; .quadrature., 7-72; and .smallcircle., 77-residue IL-8. Unidirectional error bars indicate the standard deviations. Data are representative of three assays using different neutrophil preparations.
FIG. 3 is a graph showing neutrophil elastase release activity of COOH-terminal deletion IL-8 analogs. Shown are determinations at the indicated concentrations of IL-8 1-72: .oval-solid., 1-72; .smallcircle., 1-69; .tangle-solidup., 1-66; .increment., 1-63; .box-solid., 1-60; .quadrature., 1-58; .diamond., 1-54; and X, 1-51. Unidirectional error bars indicate the standard deviations. Data are representative of three assays using different neutrophil preparations.

Assay [3] concerns human neutrophils. The assay is classed as cell-based, human neutrophils from donor blood buffy coats. The following applies: read-out: Chemotaxis ED50; n = 3.
Text: as §1, §2, §3
FIG. 2 is a graph showing neutrophil chemotaxis activity of NH2 -terminal deletion IL-8 analogs. The chemotaxis index (stimulated migration/control random migration) was determined at the indicated concentrations of IL-8 1-72: .oval-solid., 1-72; .tangle-solidup., 3-72; .increment., 4-72; .diamond., 5-72; .box-solid., 6-72; .quadrature., 7-72; and .smallcircle., 77-residue IL-8. Unidirectional error bars indicate the standard deviations. Data are representative of three assays using different neutrophil preparations.
FIG. 4 is a graph showing neutrophil chemotaxis activity of the COOH-terminal deletion IL-8 analogs. The chemotactic index (stimulated migrations/control random migration) was determined at the indicated concentrations of IL-8 1-72: .oval-solid., 1-72; .smallcircle., 1-69; .tangle-solidup., 1-66; .increment., 1-63; .box-solid., 1-60; .quadrature., 1-58; .diamond., 1-54; and X, 1-51. Unidirectional error bars indicate the standard deviations. Data are representative of three assays using different neutrophil preparations.

Assay [4] deals with human neutrophils. In kind it is cell-based, human neutrophils from donor blood buffy coats. The procedure: For the biological assays referred to in the following examples, human neutrophils isolated from buffy coats of donor blood were placed in a final suspension of 10^8 cells/ml kept at 0.15mM MaCl, 0.05 mM CaCl2 at 10° C. until use. Competition binding studies were performed according to the following protocol. […] C. […] The supernatant is aspirated, and the bottom of the tubes containing the cell sediment is sliced off and counted in a MR 480 automated µ counter (kontron).
(§4) The effect of amino acid replacement on the activity of interleukin-8 analogues was also explored, using compounds prepared by t-boc-based solid phase peptide synthesis.

For assay [5], the system named is human neutrophils. The assay is classed as cell-based, human neutrophils from donor blood buffy coats. The following applies: read-out: IC50 (µM). The procedure:
Analog cytokines having residues 5-72; 6-72; and 7-72; respectively, were synthesized according to the method described herein. […] The assay was performed as previously described and elastase release is expressed in relative fluorescence units (1 unit=1 pMol 7-amino-4-methylcoumarine produced min). Mean values were determined from duplicate determinations form one out of three similar experiments performed with different neutrophil preparations.
as §4

For assay [6], the system named is human neutrophils. The assay is classed as cell-based, human neutrophils from donor blood buffy coats. The following applies: read-out: Binding Kd. How it is done: For the biological assays referred to in the following examples, human neutrophils isolated from buffy coats of donor blood were placed in a final suspension of 10^8 cells/ml kept at 0.15mM MaCl, 0.05 mM CaCl2 at 10° C. until use. Competition binding studies were performed according to the following protocol. […] C. […] Cells are separated from unbound radioactivity by centrifugation for 1 min at 8000× g through 350 µl of phosphate-buffered saline (PBS) containing 60 mg/ml BSA (wash medium) in a Hettich Microliter centrifuge model 2020. The supernatant is aspirated, and the bottom of the tubes containing the cell sediment is sliced off and counted in a MR 480 automated µ counter (kontron). The Kd values were determined by calculating nonlinear least squares fits of the measured data, based on a single binding site model, and determining the Kd using a LIGAND program as described by Moser, et al (1991) J. Biol. Chem. 266: 10666-10671.
as §3

In assay [7] the target is human neutrophils (receptor sites for IL-8 on neutrophils) (human). The assay is described as follows: competition with 125I-IL-8 1-72 on human neutrophils, LIGAND fit.

Where two headings read alike, the source gives them in different places.

In assay [1], IL-8, ELOrn (7-72) (ligand) showed a Kd of 400 nM. Regarding “IL-8 (1-72), SEQ ID NO: 1, Ser-Ala-Lys-Glu-Leu-Arg-Cys-Gln-Cys... [reference compound]”, the EC50 in assay [2] was 13 nM; in assay [3], 0.36 nM. The corresponding values for IL-8 residues 3-72 are 2.5 nM and 0.21 nM. In turn, “SEQ ID NO: 3, Glu-Leu-Gln-Cys-Gln-Cys... [IL-8, ELQ (7-72)]” gave a Kd in assay [4] of 650 nM. Further, the half-inhibitory concentration (IC50) in assay [5] stood at 1.1 µM. On to IL-8 residues 1-58, for which the values for the EC50 in assay [2] and in assay [3] were 680 nM and 8.9 nM, respectively. Turning to “SEQ ID NO: 8, Ala-Ala-Arg-Cys-Gln-Cys... [IL-8, AAR (7-72)]”, in assay [4], the dissociation constant (Kd) is 7.9 nM. The concentration for half-maximal inhibition (IC50) in assay [5] was 0.3 µM. In turn, “IL-8 (7-72), SEQ ID NO: 13, Cys-Gln-Cys...” had a Kd in assay [4] of more than 10000 nM. The molecule IL-8 (7-72) (ligand) came in with a Kd in assay [1] of more than 10000 nM. With IL-8 residues 1-54, in assay [6], the equilibrium dissociation constant (Kd) came out at 10 nM. The figures for the EC50 in assay [2] and in assay [3] were 580 nM and 6.7 nM, respectively. The molecule 77-residue IL-8 (ligand) showed a Kd in assay [7] of 0.35 nM.

Consider IL-8 residues 1-66, for which the EC50 worked out at 13 nM in assay [2] and 0.32 nM in assay [3]. “SEQ ID NO: 10, Ile-Arg-Cys-Gln-Cys... [IL-8, IR (7-72)]” registered a Kd in assay [4] of 16 nM. The half-maximal inhibitory concentration (IC50) in assay [5] was 0.3 µM.

For IL-8 residues 1-60, the EC50 in assay [2] was 220 nM; in assay [3] it was 3.9 nM. As for “IL-8 (4-72), SEQ ID NO: 2, Glu-Leu-Arg-Cys-Gln-Cys...”, the Kd in assay [6] and in assay [4] was 0.22 nM in each case. The EC50 was 4.5 nM in assay [2] and 0.25 nM in assay [3].

Turning to IL-8, ELK (7-72) (ligand), the Kd in assay [1] turned out to be 220 nM. For IL-8 residues 1-69, the EC50 turned out to be 7.5 nM in assay [2] and 0.14 nM in assay [3]. Consider IL-8 (6-72) (ligand), for which the Kd in assay [1] amounted to 50 nM; in assay [7], 31 nM. Regarding “SEQ ID NO: 5, Glu-Leu-Lys-Cys-Gln-Cys... [IL-8, ELK (7-72)]”, the Kd in assay [4] came out at 220 nM. The IC50 in assay [5] was 1.8 µM.

Molecule “SEQ ID NO: 4, Glu-Leu-Leu-Cys-Gln-Cys... [IL-8, ELL (7-72)]” returned a dissociation constant (Kd) in assay [4] of 1290 nM. For the same molecule, in assay [5], the half-inhibitory concentration (IC50) was determined as 0.7 µM.

On to “IL-8 (6-72), SEQ ID NO: 12, Arg-Cys-Gln-Cys...”, for which the equilibrium dissociation constant (Kd) came to 31 nM in assay [6] and 50 nM in assay [4]. Also, the IC50 in assay [5] came out at 0.3 µM.

On to “SEQ ID NO: 7, Glu-Leu-Nle-Cys-Gln-Cys... (Nle = norleucine) [IL-8, ELNle (7-72)]”, for which the dissociation constant Kd in assay [4] stood at 170 nM. In assay [5], the 50% inhibitory concentration (IC50) amounted to 1 µM. For the molecule IL-8, ELNle (7-72) (ligand), the Kd in assay [1] worked out at 170 nM. Turning to IL-8, IR (7-72) (ligand), the equilibrium dissociation constant (Kd) in assay [1] was 16 nM.

As to IL-8, ELL (7-72) (ligand), in assay [1], the dissociation constant (Kd) stood at 1290 nM. In assay [4], “SEQ ID NO: 11, Gln-Arg-Cys-Gln-Cys... [IL-8, QR (7-72)]” displayed an equilibrium dissociation constant (Kd) of 34 nM. For the same molecule, the concentration for half-maximal inhibition (IC50) in assay [5] amounted to 2.1 µM. For the molecule IL-8 residues 1-63, the EC50 in assay [2] was 150 nM; in assay [3] it was 1.7 nM. Take IL-8 residues 1-51: the Kd in assay [6] worked out at 17 nM. Besides, the EC50 in assay [2] amounted to 680 nM; in assay [3], 7.1 nM.

Take IL-8 (4-72) (ligand): the equilibrium dissociation constant (Kd) in assay [1] and in assay [7] was 0.22 nM in each case. As to “IL-8 with 5 additional NH2-terminal residues [77-residue IL-8]”, the Kd in assay [6] turned out to be 0.35 nM. Also, the figures for the EC50 in assay [2] and in assay [3] were 25 nM and 0.69 nM, respectively. Regarding “IL-8 (5-72), SEQ ID NO: 9, Leu-Arg-Cys-Gln-Cys...”, the equilibrium dissociation constant (Kd) in assay [6] turned out to be 0.76 nM; in assay [4], 0.8 nM. The EC50 in assay [2] came to 1000 nM; in assay [3], 0.48 nM.

In assay [1], IL-8, ELQ (7-72) (ligand) had a Kd of 650 nM.

As to IL-8 (5-72) (ligand), the Kd in assay [1] amounted to 0.8 nM; in assay [7] it was 0.76 nM. In the case of IL-8, AAR (7-72) (ligand), the equilibrium dissociation constant (Kd) in assay [1] was 7.9 nM. Same read-out and setting: under IL-8, QR (7-72) (ligand) stands 34 nM.

B1: IL-8 1-51 (ligand)
chain: SAKELRCQCIKTYSKPFHPKFIKELRVIESGPHCANTEIIVKLSDGRELCL
B1 gave an equilibrium dissociation constant (Kd) in assay [7] of 17 nM.

B2: IL-8 1-54 (ligand)
chain: SAKELRCQCIKTYSKPFHPKFIKELRVIESGPHCANTEIIVKLSDGRELCLDPK
Take B2: the Kd in assay [7] came out at 10 nM.

Values taken from US5665346A, “Human interleukin-8 analogs” (dated 1997).
